Experimental findings from patent publication US10894803B2, “Multi-functionalized polysaccharide compounds and use thereof for targeting the cation-independent mannose 6-phosphate receptor” (NANOMEDSYN, priority 2015, dated 2021) are described below.

Read-outs that look alike come from different tables or passages of the source.

In one test the target is CI-M6PR (Homo sapiens (Human), UniProt P11717). The test can be described thus: Competitive binding of M6P analogs to biotinylated CI-M6PR on adsorbed pentamannose 6-phosphate (PMP). As to conditions: for Relative affinity: relative to M6C-Ethyl-NH2 taken as reference = 1. The method, then: 96-Well plates (Maxisorp Nunc) are incubated overnight at 4° C. with 200 μl of PMP (pentamannose 6-phosphate) at the concentration of 200 μg·ml^−1, in carbonate buffer (NaHCO3/Na2CO3 at 0.1M, pH 9.6). The following day, the solution containing the residual PMP is discarded and the wells are saturated, for 1 h at ambient temperature, with 360 μl of 1% gelatin (Type A from Porcine Skin) diluted in PBS (1.9 mM NaH2PO4, 8.1 mM Na2PO4 and 154 mM NaCl, pH 7.4). The wells are then rinsed five times with PBS to which 0.2% gelatin has been added. All the washes and also the dilutions are carried out in the solution of PBS to which 0.2% gelatin has been added. The M6P analogs to be tested at the various concentrations (from 10^−2 to 10^−7 M) are pre-incubated in the presence of pre-biotinylated CI-M6PR (M6PRb) ([…]) for 20 min, then 200 μl of the mixture are incubated in the wells for 2 h, at ambient temperature. After three washes, the wells are incubated for 1 h with a streptavidin-peroxidase solution (250 μl per well; 3.10^−8 M). After three more washes, 200 μl of a solution of OPD (o-phenylenediamine, 1 mg·ml^−1 in citrate buffer, pH 5.0, and 1 μl 30% H2O2.ml^−1; Sigma Aldrich) are added. After incubation for 20 min in the dark at ambient temperature, the optical densities are measured at the wavelength of 450 nm.
The conjugate of formula (III) is evaluated for its affinity with CI-M6PR. The binding affinity of rhGAA and of the rhGAA-M6Pn-α(1,2)-Man-Ethyloxyamino conjugate (28) was evaluated by means of a competitive binding technique with CI-M6PR described in example 2 and compared with the affinity of M6P.

For test [1], the system named is myoblasts from an adult patient suffering from Pomp disease. Kind of test: Cellular maturation of internalized GAA by Western blot. It counts as cell-based, human. The following applies: 50 nM, 48 h incubation, healthy subject myoblasts = 100%. The method, then:
The myoblasts are incubated for 48 h in the presence of 50 nM rhGAA or of the rhGAA-M6Pn-α(1,2)-Man-Ethyloxyamino conjugate (28) (conjugate of formula (III)), then lysed and the proteins are extracted. The cellular maturation of the internalized GAA enzyme in the myoblasts of patients suffering from Pomp disease is studied by the SDS polyacrylamide gel separation technique, followed by immunodetection of the GAA by Western blot with an anti-human GAA antibody (anti-LYAG, Genetex) or an anti-human actin antibody (Invitrogen). […] This experiment is representative among two experiments. The thick arrow in FIG. 4 indicates the intermediate form of GAA. The black arrow indicates the mature form of GAA (60-70 kDa).
The mature form of 60 kDa is quantified by considering the band present in the myoblasts originating from a healthy subject to be 100%. The expression of GAA 60 kDa in the patient myoblasts corresponds to 1% of the GAA of a healthy subject and is not increased in the myoblasts treated with rhGAA. Conversely, the treatment with the rhGAA-M6Pn-α(1,2)-Man-Ethyloxyamino conjugate (28) increases the 60-70 kDa band to 47% of the GAA of a healthy subject. […] This activity is important for an application in the treatment of Pomp disease by enzyme therapy, but can also be applicable to all lysosomal diseases.
On the technique in general: In western blotting, separated proteins are transferred to a membrane and probed.

Test [2] deals with myoblasts of patients suffering from the adult form of Pomp disease. Kind of test: Internalization: GAA catalytic activity (4-MUG substrate) in cell extracts of treated myoblasts. Type of test: cell-based, human. As to conditions: 50 nM, 48 h incubation; compared with rhGAA. As for the experimental part: The myoblast-type cells originating from an adult patient suffering from Pomp disease are maintained in primary culture.
The catalytic activity of GAA is measured in the cell extracts using the synthetic substrate 4-methylumbelliferyl-α-D-glucopyranoside (4-MUG). This substrate and the molecular weight standards are obtained from Sigma. The GAA activity in the cell extracts (20 μl) is measured in a reaction volume of 75 μl containing 50 mM citric acid, 115 mM K2HPO4, 110 mM KCl, 10 mM NaCl, pH 5.0, with 6 mM 4-MUG, for 10 min at ambient temperature. The reaction is stopped with 75 μl of 0.1 M Tris HCl, pH 8. The fluorescence is read with an excitation filter at 355 nm and an emission filter at 460 nm in 96-well plates, and compared to a standard curve obtained with 4-methylumbelliferone. The catalytic activity is expressed per mg of protein. Mean±standard deviation.

[3] abbreviates: competitive binding technique of example 2, Example 4 experiments, read-out: 50% inhibitory concentration (IC50), affinity for CI-M6PR.
The mark [4] stands for this setting: inhibition of CI-M6PR binding to adsorbed PMP, Table 1, read-out: IC50.

Chain of CI-M6PR (P11717 41-2491): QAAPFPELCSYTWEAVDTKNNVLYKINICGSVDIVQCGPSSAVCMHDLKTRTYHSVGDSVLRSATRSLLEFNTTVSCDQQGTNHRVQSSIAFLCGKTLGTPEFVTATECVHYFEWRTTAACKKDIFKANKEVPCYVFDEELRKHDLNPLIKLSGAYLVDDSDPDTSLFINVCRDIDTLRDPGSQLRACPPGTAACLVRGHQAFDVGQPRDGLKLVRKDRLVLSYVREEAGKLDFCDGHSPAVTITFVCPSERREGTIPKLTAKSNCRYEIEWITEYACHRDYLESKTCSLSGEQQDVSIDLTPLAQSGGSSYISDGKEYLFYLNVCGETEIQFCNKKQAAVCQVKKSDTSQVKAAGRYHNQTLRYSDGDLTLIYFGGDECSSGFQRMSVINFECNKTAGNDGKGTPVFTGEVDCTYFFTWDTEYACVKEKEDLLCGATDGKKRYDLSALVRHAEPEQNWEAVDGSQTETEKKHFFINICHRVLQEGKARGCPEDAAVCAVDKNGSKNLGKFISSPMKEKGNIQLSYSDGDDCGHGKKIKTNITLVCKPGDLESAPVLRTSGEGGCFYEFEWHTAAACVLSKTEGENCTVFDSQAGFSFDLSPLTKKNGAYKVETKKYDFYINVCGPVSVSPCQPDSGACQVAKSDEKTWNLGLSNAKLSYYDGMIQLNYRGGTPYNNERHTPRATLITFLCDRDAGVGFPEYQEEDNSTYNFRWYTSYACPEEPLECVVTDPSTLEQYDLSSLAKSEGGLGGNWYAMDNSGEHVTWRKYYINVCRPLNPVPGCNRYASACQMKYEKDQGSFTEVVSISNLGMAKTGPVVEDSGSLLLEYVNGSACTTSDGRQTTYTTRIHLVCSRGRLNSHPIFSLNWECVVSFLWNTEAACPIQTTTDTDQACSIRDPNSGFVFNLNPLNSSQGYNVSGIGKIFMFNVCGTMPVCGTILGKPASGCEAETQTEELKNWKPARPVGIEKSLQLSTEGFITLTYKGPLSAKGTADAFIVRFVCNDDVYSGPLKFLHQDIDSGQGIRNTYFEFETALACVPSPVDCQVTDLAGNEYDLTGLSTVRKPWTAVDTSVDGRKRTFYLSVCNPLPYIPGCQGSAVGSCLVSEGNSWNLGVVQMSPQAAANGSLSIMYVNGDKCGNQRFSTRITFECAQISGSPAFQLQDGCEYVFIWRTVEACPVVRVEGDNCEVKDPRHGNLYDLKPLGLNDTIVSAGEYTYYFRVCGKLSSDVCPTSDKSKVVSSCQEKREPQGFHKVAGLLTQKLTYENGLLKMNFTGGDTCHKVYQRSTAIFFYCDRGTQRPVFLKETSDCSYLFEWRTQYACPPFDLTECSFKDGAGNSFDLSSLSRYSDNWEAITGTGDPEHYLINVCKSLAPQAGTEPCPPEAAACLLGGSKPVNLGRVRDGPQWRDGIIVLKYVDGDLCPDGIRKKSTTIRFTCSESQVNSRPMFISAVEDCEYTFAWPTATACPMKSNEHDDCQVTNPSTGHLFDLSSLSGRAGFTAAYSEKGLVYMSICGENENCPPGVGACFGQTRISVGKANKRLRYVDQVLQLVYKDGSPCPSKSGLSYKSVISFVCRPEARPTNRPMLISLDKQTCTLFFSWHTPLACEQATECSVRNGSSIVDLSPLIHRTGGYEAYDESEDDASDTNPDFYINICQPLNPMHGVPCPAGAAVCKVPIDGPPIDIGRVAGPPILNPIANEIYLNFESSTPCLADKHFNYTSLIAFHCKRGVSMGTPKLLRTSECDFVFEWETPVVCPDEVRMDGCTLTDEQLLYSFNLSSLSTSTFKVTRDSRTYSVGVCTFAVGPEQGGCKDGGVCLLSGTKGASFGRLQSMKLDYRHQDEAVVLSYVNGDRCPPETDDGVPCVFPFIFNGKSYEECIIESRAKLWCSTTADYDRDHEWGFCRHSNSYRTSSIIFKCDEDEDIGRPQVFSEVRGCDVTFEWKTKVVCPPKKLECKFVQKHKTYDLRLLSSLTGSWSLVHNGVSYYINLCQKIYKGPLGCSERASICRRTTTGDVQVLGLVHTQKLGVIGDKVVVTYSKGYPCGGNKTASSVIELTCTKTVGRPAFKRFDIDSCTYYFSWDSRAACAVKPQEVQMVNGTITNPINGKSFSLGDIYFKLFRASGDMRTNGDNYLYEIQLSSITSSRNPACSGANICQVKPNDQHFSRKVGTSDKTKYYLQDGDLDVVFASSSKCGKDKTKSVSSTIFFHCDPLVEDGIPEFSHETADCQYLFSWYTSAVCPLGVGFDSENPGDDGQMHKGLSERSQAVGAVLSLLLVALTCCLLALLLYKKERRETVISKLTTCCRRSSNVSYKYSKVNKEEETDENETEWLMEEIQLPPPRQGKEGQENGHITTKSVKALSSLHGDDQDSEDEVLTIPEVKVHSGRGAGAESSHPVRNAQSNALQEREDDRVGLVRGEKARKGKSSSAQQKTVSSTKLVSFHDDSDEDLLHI

With “rhGAA: recombinant human acid alpha-glucosidase produced in CHO cells, approximately 110 000 Da”, in the test with CI-M6PR (setting [3]), the IC50 came to 0.3 µM. For the same compound, the “affinity for CI-M6PR, times lower than the rhGAA-M6Pn-α(1,2)-Man-Ethyloxyamino conjugate (28)” value with CI-M6PR (ratio of IC50 values) amounted to 5.5 times. In addition, the “mature form of GAA (60-70 kDa band), % of the GAA of a healthy subject” value in test [1] is listed as “not increased”.
`NCCO[C@H]1OC(CCC(=O)O)[C@@H](O)[C@H](O)C1O` (stereo partly drawn) [M6C-Ethyl-NH2]: the IC50 on CI-M6PR (setting [4]) was 99 µM. This compound showed a Relative affinity at CI-M6PR of 1.
In the case of `O=C[C@@H](O)[C@@H](O)[C@H](O)[C@H](O)COP(=O)(O)O` [Compound M6P, mannose 6-phosphate], the IC50 at CI-M6PR (setting [3]) was found to be 30 µM.
Turning to `NCCO[C@H]1OC(CCP(=O)(O)O)[C@@H](O)[C@H](O)C1O` (stereo partly drawn) [M6Pn-Ethyl-NH2], the IC50 on CI-M6PR (setting [4]) came out at 29 µM. The same compound returned a Relative affinity on CI-M6PR of 3.4.
The like results for `NCCO[C@H]1O[C@H](CO)[C@@H](O)[C@H](O)[C@@H]1O[C@H]1O[C@H](CCC(=O)O)[C@@H](O)[C@H](O)[C@@H]1O` [Compound 24, aminoethyl 6,7-dideoxy-7-hydroxycarbonyl-α-D-manno-heptopyranosyl-(1→2)-α-D-mannopyranoside] were, in that order, 17 µM and 5.8.
Regarding “rhGAA-M6Pn-α(1,2)-Man-Ethyloxyamino (28): rhGAA functionalized on oligosaccharide chains with phosphonate disaccharide analog 28; conjugate of formula (III)”, the “cell penetration of GAA measured through catalytic activity on 4-MUG” value in test [2] is reported as “significantly increases”. Moreover, the “mature form of GAA (60-70 kDa band), % of the GAA of a healthy subject” value in test [1] stood at 47%.
